Test results published in US20140243403A1, “TREATING COLORECTAL, PANCREATIC, AND LUNG CANCER” (The General Hospital Corporation, priority 2011, published 2014).

System: threonine 172 phosphorylation of the AMP-activated kinase (p-AMPK)
Assay: AMPK threonine 172 phosphorylation, western blot
Format: cell-based, human
Conditions: 24 h
Protocol: (B) Effects of TAK1 inhibition on apoptosis and signaling in a representative panel of KRAS-independent and KRAS-dependent cell lines, 24 h after treatment. PARP and caspase-3 cleavage are shown as indicators of apoptosis, and AMPK threonine 172 (T172) phosphorylation is shown as a downstream indicator of TAK1 signaling activity. GAPDH serves as a gel loading control.
Pharmacologic TAK1 inhibition triggered apoptosis in KRAS-dependent colon cancer cells, as measured by PARP and caspase-3 cleavage (FIG. 3B). […] Thus, low concentrations of 5Z-7-oxozeaenol, in the range of 0.625 to 1.25 μM, promote apoptosis selectively in KRAS-dependent colon cancer cells.
The following antibodies were used for western blotting in the above examples: KRAS OP-24, Pan-Ras OP-40 (Calbiochem); PARP (BD Pharmigen, 4C10-5); BMP-7 (Abcam); phospho-ERK, Axin2, phospho Smad1 and total Smad1/5/8, phospho- and total AMPK, phospho- and total AKT, cleaved Caspase-3 (Cell Signaling); GAPDH (Chemicon); E-Cadherin, beta-catenin (BD Pharmigen) Syk, TAK1, total ERK1 (Santa Cruz). For secreted BMP-7 levels, 1×10^6 HT29 cells stably expressing ER-KRAS(12V) were plated in 10 cm dishes. 24 h post-plating, 10 ml serum-free DME/F12 medium (Gibco) was added. Conditioned media was collected 24 h post-induction of ER-KRAS(12V) with 4-HT and concentrated to […], using AMICON® Ultra-4 Centrifugal Filter Units with 3 kDa membranes. […]

## COc1cc(O)c2c(c1)/C=C/C[C@H](O)[C@H](O)C(=O)/C=C\C[C@H](C)OC2=O [5Z-7-oxozeaenol]
KRAS-dependent colon cancer cells
  threonine 172 phosphorylation of AMPK (p-AMPK): reduced
KRAS-independent cells
  AMPK phosphorylation: unaffected
